Experimental data as given in article PMC11121495, “Blap-6, a Novel Antifungal Peptide from the Chinese Medicinal Beetle Blaps rhynchopetera against Cryptococcus neoformans” (International Journal of Molecular Sciences, 2024).
Where no end group is shown, it is not given here.

What was measured:
[1] = test system: C. neoformans ATCC 32045 biofilm; assay: Biofilm inhibition (crystal violet); format: cell-based, Cryptococcus neoformans; details: 1 × MIC, 48 h, 37 °C, A600, dose-dependent
Experimental: The single colony of C. neoformans ATCC 32045 was selected and cultured at 180 rpm and 37 °C. The physiological saline was washed three times and then re-suspended. The fungal concentration was adjusted to 1 × 10^6 CFU/mL, and then 100 μL of the fungal solution was added to each hole in the 96-well plate. The samples to be tested were diluted with sterile saline to 0.5×, 1×, 2×, 4×, and 8 × MIC, and 100 μL was added to the 96-well plate and mixed well. Three replicate wells were set for each concentration. The negative control group was added to the same volume of sterile saline. The positive control group was added with 10 μM fluconazole and amphotericin B, respectively, and the above group was incubated in a 37 °C incubator for 48 h. After that, the supernatant was discarded and washed with sterile PBS three times, 1 min each time. And then, 99% methanol was added and fixed for 5 min. After staining with 100 μL 0.1% crystal violet for 5 min, the plate was washed with PBS, and 100 μL 95% ethanol was added. The absorbance at 600 nm was detected by a microplate reader.

C. neoformans = assay: microbe, parasite or virus in culture; format: cell-based, Cryptococcus neoformans (ATCC 32045)
Excerpt: (§1) These standard strains of Escherichia coli (E. coli, ATCC 8739), Staphylococcus aureus (S. aureus, ATCC 6538), Pseudomonas aeruginosa (P. aeruginosa, ATCC 27853), Acinetobacter baumannii (A. baumannii, ATCC 1968), Candida albicans (ATCC 10231), and the clinical strain of Methicillin-resistant Staphylococcus aureus (MRSA, MRSA-Z) were obtained from Kunming Medical University. The standard strain of C. neoformans (ATCC 32045) was purchased from Shanghai Yingxin Laboratory Co., Ltd. (CAS NO. YXJ50058). Different strains of E. coli, S. aureus, MRSA, P. aeruginosa, and A. baumannii were cultured with shaking at 37 °C in Luria–Bertani (LB) medium. C. neoformans was cultured at 35 °C in Sabouraud Dextrose Agar (SDA) medium according to the manufacturer’s instructions.
(§2) According to Clinical and Laboratory Standards Institute (CLSI) protocols, the minimum inhibitory concentration (MIC) is the minimum drug concentration at which antibiotics inhibit the growth and reproduction of strains. The different strains were grown in their corresponding media at 35 °C or 37 °C until they entered the exponential growth phase. Fluconazole and amphotericin B were used as positive controls, and sterile 0.9% NaCl was used as a negative control. The peptides were diluted to various concentrations in sterile saline. According to 1 OD = 1 × 10^9 CFU/mL, the above bacterial solution was diluted to 2 × 10^5 CFU/mL with the corresponding medium. In advance, 100 μL of normal saline was added to a sterile 96-well plate, and 200 μL of the sample to be tested was added to the first well. The sample to be tested was subjected to double gradient dilution, and then 100 μL of bacterial solution with a concentration of 2 × 10^5 was added to each well. It was cultured at 35 °C or 37 °C for different times. The light absorption value of the bacterial solution at 600 nm was detected by a microplate reader (Epoch Etock, Biotek, Winooski, VT, USA), and the average concentration of the samples in the pores and adjacent pores that could not detect microbial growth was used as the MIC value.

A. baumannii = assay: microbe, parasite or virus in culture; format: cell-based, Acinetobacter baumannii (ATCC 1968)
Excerpt: as §1, §2

trypsin = assay: in vitro; format: in vitro ADME
Experimental: (§3) For investigating the impact of protease on blap-6, trypsin and chymotrypsin were chosen as the enzymes to be studied in the experiment. […] Then these samples (including blap-6 as a standard) were detected by high-performance liquid chromatography (HPLC, Waters, Milford, MA, USA) on a C18 column (4.6 mm × 250 mm, Waters, USA). Solvent A was ultrapure water, and solvent B was acetonitrile. The flow rate was 0.5 mL/min, and the detection wavelength was 280 nm. The column was balanced with 95% solvent A in 0-3 min and eluted with 95-40% solvent A in 3-10 min, 40-5% solvent A in 10-15 min, and 5-95% solvent A in 15-20 min. The degradation rate was calculated by the peak area of the HPLC.

in vitro = in vitro ADME
Experimental: as §3

[2] = test system: C. neoformans ATCC 32045 pre-formed biofilm; assay: Biofilm eradication (crystal violet); format: cell-based, Cryptococcus neoformans; details: 1 × MIC, 48 h pre-formed biofilm, 48 h treatment, A600
Experimental: The single colony of C. neoformans ATCC 32045 was picked and cultured at 180 rpm and 37 °C. After washing with normal saline three times and being resuspended, the concentration of the fungal solution was adjusted to 1 × 10^6 CFU/mL and then added to a 96-well plate. Each well was incubated at 37 °C for 48 h. The fungal solution was discarded and washed three times with PBS for 1 min each time. The sample to be tested was diluted with normal saline to 0.5×, 1×, 2×, 4× and 8 × MIC, and 200 μL was added to the 96-well plate, respectively. Each concentration was set to three replicate wells, and the negative control group was added with the same volume of sterile normal saline. In the positive control group, 10 μM fluconazole and 10 μM amphotericin B were added and incubated at 37 °C for 48 h. After that, the supernatant was discarded and washed three times with sterile PBS for 1 min each time. And then, 99% methanol was added and fixed for 5 min. Methanol was removed and dried under the ultra-clean bench. After staining with 100 μL 0.1% crystal violet for 5 min, wash the plate with PBS, dry, and add 100 μL 95% ethanol. The absorbance at 600 nm was detected by a microplate reader.

C. neoformans ATCC 32045 = assay: Fungal-killing kinetics; format: cell-based, Cryptococcus neoformans; details: 10 × MIC; 1 × 10^6 CFU/mL, SDB, 37 °C, colony count
Experimental: The single colony of C. neoformans ATCC 32045 was selected and cultured at 180 rpm and 37 °C, washed three times with normal saline, and then resuspended, and the fungal solution was diluted to 1 × 10^6 CFU/mL with SDB medium. The positive control was fluconazole, and the negative control was normal saline. […] The fungal liquid after adding the sample was quickly put into the 37 °C constant temperature incubator, and the shaking culture was carried out at 180 rpm. […] The plate was placed in a constant temperature incubator for inverted culture for 72 h at 37 °C, and then the single colony on the plate was counted.

E. coli = assay: microbe, parasite or virus in culture; format: cell-based, Escherichia coli (ATCC 8739)
Excerpt: as §1, §2

KRCRFRIYRWGFPRRRF [blap-6]
inhibition of biofilm formation [1]: significantly inhibited
MIC (C. neoformans): 0.81 µM
MIC (A. baumannii): 19.54 µM
degradation with trypsin (trypsin): began to degrade
half-life at 2.44 mg/mL (in vitro; isolated enzyme chymotrypsin): ~5 h
metabolised at 1 h, 2.44 mg/mL (in vitro; isolated enzyme chymotrypsin): 19%
metabolised at 24 h, 2.44 mg/mL (in vitro; isolated enzyme several chymotrypsin trypsin): 90%
half-life at 2.44 mg/mL (in vitro; isolated enzyme trypsin): ~6 h
eradication of pre-formed biofilm [2]: ability to remove pre-formed C. neoformans biofilm
time within which all the fungi were killed (C. neoformans ATCC 32045): ≤ 30 min
MIC (E. coli): 9.77 µM
